Article PMC10296415, “Methyl-Thiol-Bridged Oxadiazole and Triazole Heterocycles as Inhibitors of NF-κB in Chronic Myelogenous Leukemia Cells” (Biomedicines, 2023)

Legend:
[1] = tested on: MCF-7 cell line; assay: MTT cell viability assay, MCF-7; assay type: cell-based
Procedure: (§1) MCF-7 cells were purchased from Procell Life Science and Technology Co., Ltd., Wuhan, China, and cultured in MEM or Leibovitz’s L-15 medium containing 2% FBS. MCF-7 cells were maintained in a 5% CO2-humidified atmosphere at 37 °C. KCL22, LAMA84, and K562 cells were obtained from the American Type Culture Collection (Manassas, VA, USA). The KBM5 cell line was previously provided by Dr. Bharat Aggarwal (University of Texas M.D. Anderson Cancer Center, Houston, TX, USA). KBM5 cells were cultured in IMDM medium with 10% inactivated FBS and 1% penicillin-streptomycin. KCL22, LAMA84, and K562 cells were cultured in RPMI with 10% FBS and 1% penicillin-streptomycin antibiotics and maintained at 37 °C in a 5% CO2 chamber.
(§2) Cells (1 × 10^4 cells/well) were seeded on a 96-well plate and treated with 4c (0, 5, 10, 15, 30, 50 µM) for 24 h. After 24 h of treatment, 30 µL of MTT solution (2 mg/mL) for 2 h, followed by MTT lysis overnight. Cell viability was analyzed by measuring the absorbance of lysed MTT crystals using VARIOSKAN LUX (Thermo Fisher Scientific Inc., Waltham, MA, USA) at 570 nm.

[2] = tested on: MCF-10A cells; assay: Cytotoxicity assay, MCF-10A; assay type: cell-based; conditions: Homo sapiens, MCF-10A; normal mammary epithelial cells
Procedure: as §2

[3] = tested on: CML cells (KMB5, KCL22, LAMA84, and K562 cell lines); assay: MTT cell viability assay, CML cells; assay type: cell-based, human; conditions: 0, 5, 10, 15, 30, 50 µM, 24 h
Procedure: as §1, §2

[4] = MTT cell viability assay, PBMC; assay type: cell-based; conditions: normal PBMC cells, 30 and 50 µM
Procedure: as §2

[5] = tested on: NF-κB; assay: EMSA of TNFα-induced NF-κB DNA binding in CML cells; assay type: cell-based, human; conditions: 4c 0, 5, 15, 30 µM 2 h, then TNFα 0.5 nM 10 min; nuclear extracts
Procedure: CML cells (1 × 10^6 cells/well) were treated with indicated concentrations of 4c (0, 5, 15, 30 µM) for 2 h, then TNFα (0.5 nM) for 10 min. Nuclei extracts were prepared from whole cell pellets and incubated with NF-κB oligonucleotides (5′-[…]-3′ and 5′-[…]-3′), and Oct-1 (5′-[…]-3′ and 5′-[…] -[…]-3′) was used for loading control. The protein–DNA complex was run on a 5% gel, and the respective proteins were detected using the EMSA kit (Waltham, MA, USA).

[6] = tested on: NF-κB-p65; assay: Immunocytochemistry of p65 nuclear translocation in CML cells; assay type: cell-based, human; conditions: 4c 30 µM 2 h, then TNFα 0.5 nM 10 min
Procedure: CML cells (1 × 10^6 cells/well) were treated with 4c (0 or 30 µM) for 2 h, followed by TNFα (0.5 nM) addition for 10 min. Further, the CML cells were fixed, permeabilized, and blocked with 5% BSA-PBS. The cells were visualized by using primary anti-p65 antibodies and secondary antibodies called Alexa Fluor® 594 donkey anti-rabbit IgG (H + L). Nuclei were stained with DAPI, and the immobilized cells were mounted with Fluorescent Mounting Medium (Golden Bridge International Labs, Mukilteo, WA, USA) and finally quantified using an Olympus FluoView FV1000 confocal microscope (Tokyo, Japan).

[7] = tested on: p-IKKα/β, p-IκBα, phospho-p65; assay: Western blot of NF-κB complex subunits in CML cells; assay type: cell-based, human; conditions: 4c 30 µM pre-treatment, TNFα 0.5 nM
Procedure: (§3) CML cells were treated with compound 4c, harvested, and the cell lysates were obtained. The required proteins of our interest were separated on SDS-PAGE and transferred into the nitrocellulose membrane. The membrane was incubated with primary antibody and HRP-conjugated secondary antibody in a sequential manner. The ECL kit (EZ-Western Lumi Femto, DOZEN) was used to detect the respective proteins.

[8] = tested on: COX-2 binding to p65 promoter; assay: ChIP assay in CML cells; assay type: cell-based, human; conditions: 4c 0, 5, 15, 30 µM
Procedure: CML cells (1 × 10^6 cells/well) were incubated with compound 4c (5, 15, 30 µM) for 24 h and immunoprecipitated with anti-NF-κB p65 antibody. RT-PCR was performed with COX-2 at 94 °C for 5 min, 94 °C for 30 s, 58 °C for 30 s, 72 °C for 30 s with 30 cycles, and extension at 72 for 7 min. All the experiments were performed 3 times as individual repeats.

[9] = tested on: survivin, MMP-9, Bcl-2/xl, VEGF, COX-2, PARP; assay: Western blot of NF-κB regulated proteins and PARP in CML cells; assay type: cell-based, human; conditions: 4c 30 µM pretreatment, TNFα 0.5 nM for 0, 6, 12, 24 h
Procedure: as §3

COc1ccc(Cc2nnc(SCc3cn(-c4ccc(Cl)c(Cl)c4)nn3)o2)cc1 [Compound 4c, 2-(((1-(3,4-Dichlorophenyl)-1H-1,2,3-triazol-4-yl)methyl)thio)-5-(4-methoxybenzyl)-1,3,4-oxadiazole]
IC50 ([1]; Homo sapiens, MCF7, viability of MCF-7 cell line): 9 to 16 µM | IC50 ([1]; viability of MCF-7 cell line): 7.4 ± 0.87 µM | IC50 [2]: > 100 µM | cell viability in CML cells [3]: concentration-dependent loss of cell viability | viability at 24 h [4]: > 80% | binding of NF-κB to DNA induced by TNFα [5]: substantially inhibited | translocation of NF-κB-p65 to nuclei [6]: suppressed the translocation of NF-κB-p65 to nuclei | p-IKKα/β and p-IκBα induced by TNFα ([7]; cytoplasmic extracts): inhibited | phospho-p65 in nuclei ([7]; nuclear extracts): suppressed phospho-p65 in nuclei | p65 binding to the COX-2 promoter [8]: markedly inhibited COX-2 binding to the p65 promoter | cleavage of PARP [9]: enhanced the cleavage of PARP | expression of anti-apoptotic proteins (survivin, MMP-9, Bcl-2/xl, VEGF, COX-2) [9]: suppressed the expression of these proteins
